In patent US6372297B1, “Wood preservative oxathiazines” (Uniroyal Chemical Company, Inc., priority 1993, dated 2002):

Assays:
[1] = system: mixed spore suspension: Aureobasidium pullulans, Aspergillus amstelodami, Ceratocystis pilifera, Cladosporium sp., Penicillium sp., Sclerophomas entoxylina …; assay: Control of molds and sapstain fungi in mini-board test; set-up: key to Surface score of treated mini-boards, 3 week incubation, 1500 ppm / Surface score of treated mini-boards, 3 week incubation, 2500 ppm: 0: Free of fungal growth; 1: Traces of fungal growth; 2: Little fungal growth; 3: Moderate fungal growth; 4: Vigorous to maximum growth (all surfaces covered with fungal growth)
[2] = system: blue-stain fungi and molds; assay: Activity against blue-stain fungi and molds in a stick test (threshold concentrations); settings: beech sticks, 22° C., 90% relative humidity; for Threshold concentration (ppm), A. niger, score 0 / Threshold concentration (ppm), Aureobasidium, score 0 / Threshold concentration (ppm), Sclerophoma, score 0 / Threshold concentration (ppm), Trichoderma, score 0: minimum concentration to obtain score 0; for Threshold concentration (ppm), A. niger, score 1-2 / Threshold concentration (ppm), Aureobasidium, score 1-2 / Threshold concentration (ppm), Sclerophoma, score 1-2 / Threshold concentration (ppm), Trichoderma, score 1-2: minimum concentration to obtain score 1-2
Procedure, shortened: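 Wood sticks soaked 3 h in compound serially diluted in 50% ethanol, dried, then inoculated with fungal or spore suspension. Incubated at 22° C and 90% relative humidity until untreated controls grew, then growth scored 0 (none) to 4 (>50% surface covered).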

[3] = system: mixed spore suspension of blue-stain fungus and molds; assay: Activity against blue-stain fungi and molds in a mold cabinet test (BS3900: Part G6); set-up: key: 0: No growth; Trace of growth of up to 1% coverage of the test inoculated area; 2: Growth covering between 1 and 10% of the inoculated test area; Growth covering between 10 and 30% of the inoculated test area; 4: Growth covering between 30 and 70% of the inoculated test area; 5: Growth covering more than 70t of the inoculated test area
Procedure, shortened: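 Painted Scots pine sticks, sterilized by irradiation, were treated with compound solutions, dipped in mixed spore suspension and held in a mold chamber for 12 weeks. Surface growth scored 0 (none) to 5 (>70% of inoculated area covered).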

In the case of [O-][S+]1CCON=C1c1cccs1 (centres unmarked) [Compound 8], the “Surface score of treated mini-boards, 3 week incubation, 1500 ppm” value [1] was 0, the “Surface score of treated mini-boards, 6 week incubation, 1500 ppm” value [1] was 0.8 and the “Surface score of treated mini-boards, 3 week incubation, 2500 ppm” value [1] was 0. The “Surface score of treated mini-boards, 6 week incubation, 2500 ppm” value [1] was 0.4, the “Threshold concentration (ppm), A. niger, score 0” value [2] was 1000 ppm and the “Threshold concentration (ppm), A. niger, score 1-2” value [2] was 250-500 ppm. For the same compound, the “Threshold concentration (ppm), Aureobasidium, score 0” value [2] was >1000 ppm, the “Threshold concentration (ppm), Aureobasidium, score 1-2” value [2] was 250-500 ppm and the “Threshold concentration (ppm), Sclerophoma, score 0” value [2] was 100 ppm. For the same compound, the “Threshold concentration (ppm), Sclerophoma, score 1-2” value [2] was 50-100 ppm, the “Threshold concentration (ppm), Trichoderma, score 0” value [2] was 1000 ppm and the “Threshold concentration (ppm), Trichoderma, score 1-2” value [2] was 500-1000 ppm. For the same compound, the “Surface score in a paint formulation in a mold cabinet test, 6 weeks” value (from here on “Surface score in a paint formulation … 6 weeks”) ([3]; 0.15% in water-based paint) was 0, the “Surface score in a paint formulation in a mold cabinet test, 12 weeks” value (“Surface score in a paint formulation … 12 weeks” below) ([3]; 0.15% in water-based paint) was 2.0 and the “Surface score in a paint formulation … 6 weeks” value ([3]; 0.3% in water-based paint) was 0. The “Surface score in a paint formulation … 12 weeks” value ([3]; 0.3% in water-based paint) was 1.5.
O=S1(=O)CCON=C1c1cccs1 [Compound 34] was tested, and the “Surface score of treated mini-boards, 3 week incubation, 1500 ppm” value [1] was 0, the “Surface score of treated mini-boards, 6 week incubation, 1500 ppm” value [1] was 2.4 and the “Surface score of treated mini-boards, 3 week incubation, 2500 ppm” value [1] was 0. The “Surface score of treated mini-boards, 6 week incubation, 2500 ppm” value [1] was 2.4, the “Threshold concentration (ppm), A. niger, score 0” value [2] was 500 ppm and the “Threshold concentration (ppm), A. niger, score 1-2” value [2] was <250 ppm. For the same compound, the “Threshold concentration (ppm), Aureobasidium, score 0” value [2] was >1000 ppm, the “Threshold concentration (ppm), Aureobasidium, score 1-2” value [2] was 250-500 ppm and the “Threshold concentration (ppm), Sclerophoma, score 0” value [2] was 100 ppm. For the same compound, the “Threshold concentration (ppm), Sclerophoma, score 1-2” value [2] was <50 ppm, the “Threshold concentration (ppm), Trichoderma, score 0” value [2] was 2500 ppm and the “Threshold concentration (ppm), Trichoderma, score 1-2” value [2] was 500-1000 ppm. The “Surface score in a paint formulation … 6 weeks” value ([3]; 0.15% in water-based paint) was 0.5, the “Surface score in a paint formulation … 12 weeks” value ([3]; 0.15% in water-based paint) was 1.5 and the “Surface score in a paint formulation … 6 weeks” value ([3]; 0.3% in water-based paint) was 0. The “Surface score in a paint formulation … 12 weeks” value ([3]; 0.3% in water-based paint) was 1.0.
